Test results reported in patent publication US20050250801A1, “Method of treating cancer with azaspirane compositions” (priority 2003, published 2005).
Counter-ions that a name gives are not always drawn.

Assay: Excretion of radioactivity after single oral administration to male rats, target dose 1 mg free base/kg
Format: in vivo, Sprague Dawley rats
Design: Excretion of Radioactivity: unit not given beside the values
From the text: [^14C] N,N,-diethyl-8,8-dipropyl-2-azaspiro[4,5]decane-2-propanamine dimaleate salt, (“Compound II”) with a specific activity of 91 uCi/mg and chemical purity >99%, and non-radiolabeled dimaleate salt of N,N,-diethyl-8,8-dipropyl-2-azaspiro[4,5]decane-2-propanamine dimaleate (Compound 1) chemical purity >98%, respectively, were used in this study. The site of the radiocarbon label in Compound II is depicted by an asterisk in Formula II. The non-radiolabeled material was used for reference purposes. The radiolabeled material was stored at ca […] in the dark and the non-radiolabeled material at ca −20° C. in the dark.
Three healthy male Sprague Dawley rats (Crl:CD(SD)BR), age ca 8-9 weeks, body weights at dosing 237-255 g, were supplied by Charles River (UK) Limited. The animals were housed in holding cages suitable for this species for 8 days prior to use. SDS Rat and Mouse Maintenance Diet No. 1, (Special Diets Services, Witham Essex), and mains quality water were available ad libitum throughout. The diet and water supplied to the animals were routinely analyzed for quality and no problems were detected. Holding and study areas had automatic control of light cycle and temperature. The actual range of temperature measured during the study was 17-25° C. with relative humidity measured at 60%.
The dose was prepared for oral administration on the day of dosing. […]
For each rat, an aliquot of the dose solution was administered orally by gavage. […] For each dose, the combined weight of dose and dosing equipment were recorded prior to dosing and the discharged dosing equipment was weighed after dosing. The concentration of radioactive material in each dose solution was also determined.
Immediately following dosing, the rats were placed into all glass metabolism cages suitable for the quantitative collection of excreta and expired air. All samples were collected into individual, uniquely labeled containers.
[…] The collection containers were cooled by solid CO2 during the first 48 hours after dosing.
[…] Collection containers were cooled by solid CO2 during the first 48 hours.
At the time of each feces collection, each cage was washed with water (ca 750 mL) and the washings were retained for radioassay. During the periods 0-24 h and 24-48 hours after dosing, expired air was passed through 2 serial traps containing ethanolamine:ethoxyethaonol (3:7, v/v) in order to effect the removal of CO2. The trap solvent was sampled for radioassay at the end of each collection period.
At 168 hours post dose, each animal was killed by CO2 narcosis and cervical dislocation. Gastrointestinal tracts were removed and retained separately from the carcasses in preparation for radioassay.
All urine and feces samples were stored frozen ([…]) prior to and after analysis. Cage washes were stored at room temperature until analysis was complete and were then discarded. All carcasses and gastro-intestinal tracts were stored frozen at ca-20° C. prior to analysis.
Duplicate aliquots of urine (ca 0.3 mL) and cage washings (ca 1 mL) were dispensed, diluted to 1 mL with distilled water (if considered necessary) and mixed with Quickzint 1 scintillation fluid (10 mL; Zinsser Analytic Maidenhead, UK).
Feces were homogenised in 1 to 2 volumes of water with the sample and homogenate weight recorded. Duplicate aliquots (ca 0.3) were taken from each sample and dispensed onto combustopads contained in combustocones (Can berra Packard Limited, Pangbourne, UK). When dry, these samples were combusted using a Packard Tri-Carb 306 Automatic Sample Oxidiser. The resultant ^14CO2 generated was collected by absorption in Carbo-Sorb® (8 mL; Can berra Packard Limited) to which Permafluor®E^+ scintillation fluid (10 mL; Can berra Packard Limited) was added.
For each rat, the carcass and gastro-intestinal tract with contents were solubilised in Soluene 350 (Canberra Packard). When dissolved, portions of the digest (ca 0.1 mL) were taken for liquid scintillation spectrometry. […]

CCCC1(CCC)CCC2(CCN(CCCN(CC)CC)C2)CC1 [Compound II, [^14C] N,N,-diethyl-8,8-dipropyl-2-azaspiro[4,5]decane-2-propanamine dimaleate salt]
Dose recovered in expired air (0-48 hours collection): Less than 0.2%
Excretion of Radioactivity (Cage Wash 0-24 hours, #1 male): 0.1
Excretion of Radioactivity (Cage Wash 0-24 hours, #2 male): 0.1
Excretion of Radioactivity (Cage Wash 0-24 hours, #3 male): *<0.1
Excretion of Radioactivity (Cage Wash 0-24 hours, Mean): ^+0.1
Excretion of Radioactivity (Cage Wash 0-168 hours, #1 male): 0.7
Excretion of Radioactivity (Cage Wash 0-168 hours, #2 male): 1.0
Excretion of Radioactivity (Cage Wash 0-168 hours, #3 male): 1.3
Excretion of Radioactivity (Cage Wash 0-168 hours, Mean): 1.0
Excretion of Radioactivity (Cage Wash 24-48 hours, #1 male): 0.1
Excretion of Radioactivity (Cage Wash 24-48 hours, #2 male): <0.1
Excretion of Radioactivity (Cage Wash 24-48 hours, #3 male): 0.1
Excretion of Radioactivity (Cage Wash 24-48 hours, Mean): 0.1
Excretion of Radioactivity (Cage Wash 48-72 hours, #1 male): <0.1
Excretion of Radioactivity (Cage Wash 48-72 hours, #2 male): 0.2
Excretion of Radioactivity (Cage Wash 48-72 hours, #3 male): 0.2
Excretion of Radioactivity (Cage Wash 48-72 hours, Mean): 0.1
Excretion of Radioactivity (Cage Wash 72-96 hours, #1 male): 0.1
Excretion of Radioactivity (Cage Wash 72-96 hours, #2 male): 0.2
Excretion of Radioactivity (Cage Wash 72-96 hours, #3 male): 0.3
Excretion of Radioactivity (Cage Wash 72-96 hours, Mean): 0.2
Excretion of Radioactivity (Cage Wash 96-120 hours, #1 male): 0.1
Excretion of Radioactivity (Cage Wash 96-120 hours, #2 male): 0.2
Excretion of Radioactivity (Cage Wash 96-120 hours, #3 male): 0.2
Excretion of Radioactivity (Cage Wash 96-120 hours, Mean): 0.2
Excretion of Radioactivity (Cage Wash 120-144 hours, #1 male): 0.1
Excretion of Radioactivity (Cage Wash 120-144 hours, #2 male): 0.1
Excretion of Radioactivity (Cage Wash 120-144 hours, #3 male): 0.3
Excretion of Radioactivity (Cage Wash 120-144 hours, Mean): 0.2
Excretion of Radioactivity (Cage Wash 144-168 hours, #1 male): 0.2
Excretion of Radioactivity (Cage Wash 144-168 hours, #2 male): 0.2
Excretion of Radioactivity (Cage Wash 144-168 hours, #3 male): 0.2
Excretion of Radioactivity (Cage Wash 144-168 hours, Mean): 0.2
Recovery of Radioactivity (Cage Washings, 168 hour collection period, #3 male): *1.3 % administered dose
Recovery of Radioactivity (Cage Washings, 168 hour collection period, Mean): ^+1.0 % administered dose
Recovery of Radioactivity (Carcass, at 168 hours, #1 male): 11.3 % administered dose
Recovery of Radioactivity (Carcass, at 168 hours, #2 male): 14.1 % administered dose
Recovery of Radioactivity (Carcass, at 168 hours, #3 male): 14.9 % administered dose
Recovery of Radioactivity (Carcass, at 168 hours, Mean): 13.5 % administered dose
Recovery of Radioactivity (Expired air 1, #1 male): *<0.1 % administered dose
Recovery of Radioactivity (Expired air 1, #2 male): *<0.1 % administered dose
Recovery of Radioactivity (Expired air 1, #3 male): *<0.1 % administered dose
Recovery of Radioactivity (Expired air 1, Mean): ^+<0.1 % administered dose
Recovery of Radioactivity (Expired air 2, #1 male): *<0.1 % administered dose
Recovery of Radioactivity (Expired air 2, #2 male): *<0.1 % administered dose
Recovery of Radioactivity (Expired air 2, #3 male): *<0.1 % administered dose
Recovery of Radioactivity (Expired air 2, Mean): ^+<0.1 % administered dose
Excretion of Radioactivity (Feces 0-24 hours, #1 male): 18.2
Excretion of Radioactivity (Feces 0-24 hours, #2 male): 14.7
Excretion of Radioactivity (Feces 0-24 hours, #3 male): 17.7
Excretion of Radioactivity (Feces 0-24 hours, Mean): 16.9
Excretion of Radioactivity (Feces 0-168 hours, #1 male): 64.0
Excretion of Radioactivity (Feces 0-168 hours, #2 male): 65.7
Excretion of Radioactivity (Feces 0-168 hours, #3 male): 66.7
Excretion of Radioactivity (Feces 0-168 hours, Mean): 65.5
Excretion of Radioactivity (Feces 24-48 hours, #1 male): 16.3
Excretion of Radioactivity (Feces 24-48 hours, #2 male): 17.2
Excretion of Radioactivity (Feces 24-48 hours, #3 male): 14.5
Excretion of Radioactivity (Feces 24-48 hours, Mean): 16.0
Excretion of Radioactivity (Feces 48-72 hours, #1 male): 10.0
Excretion of Radioactivity (Feces 48-72 hours, #2 male): 15.2
Excretion of Radioactivity (Feces 48-72 hours, #3 male): 12.7
Excretion of Radioactivity (Feces 48-72 hours, Mean): 12.6
Excretion of Radioactivity (Feces 72-96 hours, #1 male): 7.5
Excretion of Radioactivity (Feces 72-96 hours, #2 male): 7.8
Excretion of Radioactivity (Feces 72-96 hours, #3 male): 8.0
Excretion of Radioactivity (Feces 72-96 hours, Mean): 7.8
Excretion of Radioactivity (Feces 96-120 hours, #1 male): 5.5
Excretion of Radioactivity (Feces 96-120 hours, #2 male): 4.1
Excretion of Radioactivity (Feces 96-120 hours, #3 male): 6.4
Excretion of Radioactivity (Feces 96-120 hours, Mean): 5.3
Excretion of Radioactivity (Feces 120-144 hours, #1 male): 3.5
Excretion of Radioactivity (Feces 120-144 hours, #2 male): 3.5
Excretion of Radioactivity (Feces 120-144 hours, #3 male): 4.3
Excretion of Radioactivity (Feces 120-144 hours, Mean): 3.8
Excretion of Radioactivity (Feces 144-168 hours, #1 male): 3.0
Excretion of Radioactivity (Feces 144-168 hours, #2 male): 3.2
Excretion of Radioactivity (Feces 144-168 hours, #3 male): 3.1
Excretion of Radioactivity (Feces 144-168 hours, Mean): 3.1
Recovery of Radioactivity (GI Tract, at 168 hours, #1 male): 13.8 % administered dose
Recovery of Radioactivity (GI Tract, at 168 hours, #2 male): 13.3 % administered dose
Recovery of Radioactivity (GI Tract, at 168 hours, #3 male): 10.5 % administered dose
Recovery of Radioactivity (GI Tract, at 168 hours, Mean): 12.5 % administered dose
Recovery of Radioactivity (Total, 168 hour collection period, #1 male): 96.7 % administered dose
Recovery of Radioactivity (Total, 168 hour collection period, #2 male): 103.0 % administered dose
Recovery of Radioactivity (Total, 168 hour collection period, #3 male): 103.2 % administered dose
Recovery of Radioactivity (Total, 168 hour collection period, Mean): 101.0 % administered dose
Excretion of Radioactivity (Urine 0-6 hours, #1 male): 0.1
Excretion of Radioactivity (Urine 0-168 hours, #1 male): 6.9
Excretion of Radioactivity (Urine 0-168 hours, #2 male): 8.9
Excretion of Radioactivity (Urine 0-168 hours, #3 male): 9.8
Excretion of Radioactivity (Urine 0-168 hours, Mean): 8.5
Excretion of Radioactivity (Urine 6-24 hours, #1 male): 0.4
Excretion of Radioactivity (Urine 6-24 hours, #2 male): 0.5
Excretion of Radioactivity (Urine 6-24 hours, #3 male): 0.5
Excretion of Radioactivity (Urine 6-24 hours, Mean): 0.5
Excretion of Radioactivity (Urine 24-48 hours, #1 male): 1.0
Excretion of Radioactivity (Urine 24-48 hours, #2 male): 1.4
Excretion of Radioactivity (Urine 24-48 hours, #3 male): 1.4
Excretion of Radioactivity (Urine 24-48 hours, Mean): 1.3
Excretion of Radioactivity (Urine 48-72 hours, #1 male): 1.2
Excretion of Radioactivity (Urine 48-72 hours, #2 male): 1.5
Excretion of Radioactivity (Urine 48-72 hours, #3 male): 1.7
Excretion of Radioactivity (Urine 48-72 hours, Mean): 1.5
Excretion of Radioactivity (Urine 72-96 hours, #1 male): 1.3
Excretion of Radioactivity (Urine 72-96 hours, #2 male): 1.6
Excretion of Radioactivity (Urine 72-96 hours, #3 male): 2.0
Excretion of Radioactivity (Urine 72-96 hours, Mean): 1.6
Excretion of Radioactivity (Urine 96-120 hours, #1 male): 1.2
Excretion of Radioactivity (Urine 96-120 hours, #2 male): 1.5
Excretion of Radioactivity (Urine 96-120 hours, #3 male): 1.6
Excretion of Radioactivity (Urine 96-120 hours, Mean): 1.4
Excretion of Radioactivity (Urine 120-144 hours, #1 male): 0.9
Excretion of Radioactivity (Urine 120-144 hours, #2 male): 1.3
Excretion of Radioactivity (Urine 120-144 hours, #3 male): 1.3
Excretion of Radioactivity (Urine 120-144 hours, Mean): 1.2
Excretion of Radioactivity (Urine 144-162 hours, #1 male): 0.8
Excretion of Radioactivity (Urine 144-162 hours, #2 male): 1.0
Excretion of Radioactivity (Urine 144-162 hours, #3 male): 1.2
Excretion of Radioactivity (Urine 144-162 hours, Mean): 1.0
Dose remaining in the carcass (at 168 hours): ~13.5%
Dose remaining in the gastro-intestinal tract (at 168 hours): ~12.5%
Radioactive dose recovered in feces, mean (by 168 hours after dosing): 65.5%
Radioactive dose recovered in urine, mean (by 168 hours after dosing): 8.5%
Dose recovered in excreta and cage washings, mean (full 168 hour collection period): 75.0%
Recovery of administered radioactive dose (total, range over animals, 168 hours): 96.7-103.2%
Dose recovered in the excreta (up to 120 hours after dosing): ~66%
